Measurements from publication PMC8406801, “Naringenin Inhibits Platelet Activation and Arterial Thrombosis Through Inhibition of Phosphoinositide 3-Kinase and Cyclic Nucleotide Signaling” (Frontiers in Pharmacology, 2021).
“And” between values parts separate entries of the source, which are not always exact repeats. Identical values can stand only once.

System: Akt Thr308 phosphorylation
Test: Ex vivo immunoblotting of phospho-Akt (Thr308) in ADP-stimulated PRP of treated rats
Parameters: species or system rat
Details: for p-Akt Thr308 / t-Akt (Fold to Control) / p-Akt Thr308 / t-Akt (raw data): ex vivo, Figure 8D
Experimental: Male SD rats were randomly divided into 5 groups with 6 rats in each group. […] Sixty minutes after the last sample treatment, blood was drawn from the abdominal aorta of rats into the siliconized vacutainers containing 1:9 (v/v) 3.8% sodium citrate. The collected blood was centrifuged at 100 × g for 10 min at room temperature to obtain PRP. […] The platelet counts of PRP were adjusted to 4×10^8 cells/mL using PPP. PRP was incubated for 5 min at 37°C and then stimulated by ADP (5 μM). The maximum platelet aggregation rate was determined as mentioned above.
For in vitro platelet aggregation, aliquots of washed platelets were preincubated with vehicle or various concentrations of naringenin for 5 min and stimulated with ADP (10 μmol/L) under stirring at 37°C for 5 min. For ex vivo platelet aggregation, PRP was incubated at 37°C for 5 min and stimulated with ADP (5 μmol/L) under stirring at 37 °C. The platelet aggregation was terminated by adding ethylenediaminetetraacetic acid (EDTA; 10 mM). Total protein was prepared using RIPA lysis buffer and protein content was determined by bicinchoninic acid (BCA) protein assay kit. Equal amounts of platelet proteins (30 μg) were separated on 10% SDS polyacrylamide gel electrophoresis (SDS-PAGE) and then transferred to poly vinylidene difluoride (PVDF) membranes and subjected to western blot. Blots were blocked with TBS-Tween 20 containing 5% BSA and probed with primary antibodies diluted in blocking solution at 4°C overnight followed by incubation with the corresponding HRP secondary antibodies. The protein bands were visualized using enhanced chemiluminescence (ECL).
Blood was collected and PRP was obtained after the last treatment. Platelet aggregation was induced by ADP (5 μmol/L) (A). Data are expressed as means ± SD (n = 6). After ADP stimulation, platelet proteins were then extracted and analyzed by immunoblotting using PI3Kp110β antibody (B) and phospho-specific antibodies such as Akt^Ser473 (C), Akt^Thr308 (D) and ERK1/2^Thr202/Tyr204 (E). Total level of GAPDH was measured on each sample as a loading control. The blots shown are representative of three separate experiments. The relative protein expression levels were quantified by ImageJ 1.47v software. The level of relative protein expression obtained with vehicle control was taken as 1. R represents the level of relative protein expression in resting platelets. Data are expressed as means ± SD (n = 3). *p < 0.05, **p < 0.01, ***p < 0.001 compared with the vehicle control group (Con).
To further investigate the antiplatelet mechanisms of naringenin ex vivo, several signaling molecules such as PI3Kp110β, Akt and ERK were detected. After oral administration of naringenin (200, 400, and 800 mg/kg) to rats for 7 days, rat PRP was prepared and stimulated by ADP (5 μmol/L), and platelets were lysed to determine protein phosphorylation levels using western blot.

SMILES: O=C1C[C@@H](c2ccc(O)cc2)Oc2cc(O)cc(O)c21 [Naringenin]
- p-Akt Thr308 / t-Akt (Fold to Control) (naringenin 200mg/kg): 0.5157 and 0.5526 and 0.5291
- p-Akt Thr308 / t-Akt (raw data) (naringenin 200mg/kg): 0.4340 and 0.4650 and 0.4452
- p-Akt Thr308 / t-Akt (Fold to Control) (naringenin 400mg/kg): 0.3273 and 0.3649 and 0.3395
- p-Akt Thr308 / t-Akt (raw data) (naringenin 400mg/kg): 0.2755 and 0.3071 and 0.2857
- p-Akt Thr308 / t-Akt (Fold to Control) (naringenin 800mg/kg): 0.3636 and 0.3541 and 0.3985
- p-Akt Thr308 / t-Akt (raw data) (naringenin 800mg/kg): 0.3060 and 0.2979 and 0.3354
- phosphorylation of Akt at Thr308 in rat PRP ex vivo (rats, oral 200, 400, and 800 mg/kg for 7 days, ADP 5 μmol/L): significantly suppressed
